Data on five compounds can be found in US20120064180A1, “USE OF NO AND NO DONORS FOR TERMINATING DORMANCY IN INVERTEBRATES” (UNIVERSITEIT GENT, priority 2009, published 2012).

What all share (type): in vivo
Assay [1] relates to eggs with diapaused embryos of Bombyx mori. The assay can be described thus: Termination of embryonic diapause in eggs dipped in NO donor or HCl. To be noted: SpermineNONOate 1 mM 30 min dip; 20% HCl 5 min 48° C. On the procedure: All experiments were carried out on silkmoth strain Bombyx mori J106 (Lepidoptera: Bombycidae). Larvae were maintained on an artificial diet (Yakuruto Co.) under standard conditions of 25° C., 65% relevant humidity and 16 h light ([…] et al., 2003). Egg batches were collected from a continuous insect colony and used for the experiments. […] The latter treatment is the normally used procedure to break diapause in eggs with diapaused embryos for maintenance of the insect colony of B. mori ([…] et al., 2003). In a water-control, eggs with diapaused embryos were dipped in distilled water only, and in a blank-control, eggs with diapaused were not treated. […] The numbers of eggs with diapaused embryos per treatment (n) are given with the results.

Assay [2] deals with Bolshoye Yarovoye Artemia cysts (ARC BY 1706). The assay can be described thus: Post-diapause development of Bolshoye Yarovoye strain encysted Artemia embryos with NO donors. The settings on record: for hatching after 24 hours: 40 and 60 μM, overcome by 48 hr; for concentration at which NO donor was most effective on cyst development: Bolshoye Yarovoye cysts, FIG. 2A-F. The procedure: Encysted embryos (cysts) from a parthenogenetic strain of Artemia obtained in winter 2005-2006 in Bolshoye Yarovoye (Altay Region: 52° 51′64″ N-78° 37′32″ E), Russia (Artemia Reference Center (ARC) code number BY 1706), were stored in the dark at 4° C. in dry sealed bags. For the experiment, the cysts were grown at 26-28° C. with constant illumination in 25 ml of sea water under varying experimental conditions as detailed below.
To quantify larval (nauplii) emergence and hatching (FIG. 1) which served as measures of cyst development, 6 samples of 250 μl from each 50 ml tube were mixed individually with 250 μl of sea water and 2 drops of Lugol's solution (Van Stappen, G, 1996) prior to counting nauplii (N) and umbrella (U) with the aid of a dissecting microscope. […] The extent of development was determined as the percent of developed cysts which was calculated as either the number of hatched larvae, or the number of hatched and emerged larvae, obtained from 100 cysts, the latter represented by the sum of hatched nauplii (larvae), emerged larvae and undeveloped cysts containing embryos.
(§1) The hatching percentage (H %) was calculated according to: […]
(§2) The hatching percentage plus (H^+%) was calculated according to: […]
The percent of developed cysts was calculated as described above.

In assay [3] the test system is Vinh Chau Artemia cysts (ARC VC 1742). In words: Post-diapause development of Vinh Chau strain encysted Artemia embryos with NO donor. On the procedure:
Dry and processed embryos (cysts) from a strain of Artemia obtained in 2009 in the Soc Trang Province in the Mekong Delta (09° 19′48″ N-105° 58′11″ E) (Artemia Reference Center (ARC) code number VC 1742), were stored in the dark at 4° C. in tin cans, that were not resealed after the first opening. For the experiment, the cysts were grown at 26-28° C. with constant illumination in 25 ml of sea water under varying experimental conditions as detailed below.
To quantify nauplii (larvae) emergence and hatching (FIG. 1) which served as measures of cyst development, 6 samples of 250 μl were taken from each 50 ml tube after 10, 12, 14, 16, 18, 20, 22 and 24 h post incubation. Subsequently the obtained samples were mixed individually with 250 μl of sea water and 2 drops of Lugol's solution (Van Stappen, G, 1996) prior to counting nauplii (N) and umbrella (U) with the aid of a stereomicroscope.
as §1, §2

Assay [4] concerns Maloye Yarovoye Artemia cysts (ARC MY 1732). The assay can be described thus: Post-diapause development of Maloye Yarovoye strain encysted Artemia embryos with NO donor. On the procedure:
Encysted embryos (cysts) from a parthenogenetic strain of Artemia obtained in 2008 in Maloye Yarovoye (Altay Region: 53° 04′00″ N-79° 10′00″ E), Russia (Artemia Reference Center (ARC) code number MY 1732), were stored in the dark at 4° C. in dry sealed bags. For the experiment, the cysts were grown at 26-28° C. with constant illumination in 25 ml of sea water under varying experimental conditions as detailed below.
To quantify nauplii (larvae) emergence and hatching (FIG. 1) which served as measures of cyst development, 6 samples of 250 μl were taken from each 50 ml tube after 24 and 48 h. Subsequently the obtained samples were mixed individually with 250 μl of sea water and 2 drops of Lugol's solution (Van Stappen, G, 1996) prior to counting nauplii (N) and umbrella (U) with the aid of a stereomicroscope.
as §1, §2

Assay [5] relates to resting eggs of Brachionus. The assay can be described thus: Brachionus resting egg hatching. The procedure: Resting eggs of Brachionus were suspended in 20 ml seawater (25 g/l), supplemented with different concentrations of Sin-1 Chloride (1-60 μM) and put in a falcon tube. These tubes were put on a rotor at 28° C. under constant illumination. The effect on the hatching rate was measured after 48 hr and 72 hr of incubation, by counting emerged rotifers in function of the amount of NO donor added.

The test system of assay [6] is eggs with diapaused embryos of Bombyx mori. In words: Termination of embryonic diapause in eggs by NO gas. To be noted: 5 days after treatment. On the procedure:
All experiments were carried out on silkmoth strain Bombyx mori J106 (Lepidoptera: Bombycidae). Larvae were maintained on an artificial diet (Yakuruto co.) under standard conditions of 25° C., 65% relative humidity and 16 h light (Tazima, Y., 1978; Swevers et al., 2003). Egg batches were collected from a continuous insect colony and used for the experiments.
In a first series, a batch of 70 eggs with diapaused embryos of B. mori were submerged for 5 minutes in 20% HCl (in distilled water) at 48° C., and then the eggs were washed with distilled water and dried to the air. […] The latter treatment is the normally used procedure to break diapause in eggs with diapaused embryos for maintenance of the insect colony of B. mori (Tazima, Y., 1978; Swevers et al., 2003). In a water-control, a batch of 70 eggs with diapaused embryos was submerged in distilled water for 5 minutes at 45° C., and in a blank-control, the same procedure was followed, but without addition of water.
In parallel, 4 batches of 70 eggs each, were put in Pyrex glass bottles of 100 mL, which were sealed gastight by means of a rubber stop and a screw cap. Then the air was removed from these bottles by inserting a needle (in the rubber stop) connected to a vacuum pump. Using 50 ppmv (Parts Per Million by Volume) NO gas (with N2 as carrier gas, purchased from Air Liquide) dilution series were prepared (with air as dilutor) to obtain final NO concentrations of 20, 200, 2000 and 20000 ppbv, in these bottles. Verification of the NO concentrations was done by sampling from a parallel bottle that received the same gas mixture as the treatment bottle and NO content was determined by using a chemiluminescence detector (CLD 77 Amsp, Eco Physics). 30 minutes after insertion of the gas mixtures, the rubber stops were removed. These treatments were all performed at room temperature.
Development of the neonate larvae (=hatching of first instar larvae from eggs) was scored at daily intervals. The numbers of eggs with diapaused embryos per treatment (n) are given with the results.

Assay [7] deals with diapaused adults of Leptinotarsa decemlineata. The assay can be described thus: Termination of adult diapause by NO gas. The procedure: All experiments were carried out on the Colorado potato beetle (potato beetle), Leptinotarsa decemlineata (Say) (Coleoptera: Chrysomelidae). Diapaused adult beetles were obtained by rearing larvae and pupae at 8 h light, 16 h dark, 25±2° C. and 70% relative humidity (Yi, et al., 2000). All life stages were fed potato (Solanum tuberosum L. ‘Bintje’) plants, that were refreshed daily. 15 days after adult emergence, the diapausing adults were placed in individual aluminum foil, 2.5-cm diameter ‘beakers’, containing fresh soil (Universal potting soil, Type 1, M. Snebbout n.v., Kaprijke, Belgium), and were stored at 4° C. in darkness.
Under red light, beetles were collected and put in Pyrex glass bottles of 100 mL, containing a layer of fresh soil. These bottles were wrapped in a double layer of aluminum foil to ensure complete darkness and sealed gastight by means of a rubber stop and a screw cap. The air was then removed by inserting a needle (in the rubber stop) connected to a vacuum pump. Using 50 ppmv NO gas (with N2 as carrier gas, purchased from Air Liquide), dilution series were prepared (with air as dilutor), and the desired final NO concentrations were injected in each bottle. A blank control, received ambient air only. Verification of the NO concentrations was done by sampling from a parallel bottle that received the same gas mixture as the treatment bottle. NO content was determined with a chemiluminescence detector (CLD 77 Amsp, Eco Physics). The treatments were all done at 4° C. in the dark and 30 minutes after insertion of the gas mixtures, the rubber stops were removed.
After the treatments, the beetles were collected in plastic containers (dimensions: 10×21×5 cm), containing fresh soil and potato leaves and kept at 25±3° C., 65% relative humidity and 8 h light (Exp. 1 and 2). In the last experiment (Exp 3), beetles were left at 4° C. in the dark for 6 hours before transfer to a 12° C. incubator, in the dark. The beetles that emerged were collected every day and the beetles' emergence per treatment (% of total) are given with the results.

Structures can show the parent of a compound that is named as a salt.

As to `Cl` [20% HCl], in assay [1], the “Number of developed neonates at day 6” value was found to be 10, the “Number of developed neonates at day 7” value is listed as 36, the “Number of developed neonates at day 8” value was determined as 12 and the “Number of developed neonates at day 14” value worked out at 0. Moreover, in assay [1], the “Number of undeveloped eggs at day 14” value amounted to 14, the “eggs developed into neonate larvae at 6-8 days after treatment (total)” value was 81% and the “percentage of developed neonates at day 14” value is listed as “(0%)”.

For the compound `CC1(C)N([O])C(c2ccccc2)=[N+]([O-])C1(C)C` [PTIO, 2-phenyl-4,4,5,5,-tetramethylimidazoline-1-oxyl 3-oxide], the “effect of NO scavenger on cyst development promoted by NO donors” value in assay [2] (300 μM PTIO with 0.5 μM Papa NONOate, 6.0 μM Spermine NONOate or 6.0 μM Sin-1 chloride, 48 hr) is recorded as “inhibited cyst development”.

As to `CCCN(CCCN)N(O)N=O` [Papa NONOate, 3-(2-hydroxy-2-nitroso-1-propylhydrazino)-1-propanamine], the “hatching percentage (H %) versus untreated control” value in assay [3] (0.5 μM, 16 and 18 h post-treatment) is given as “significantly increased”. Further, the “hatching percentage (H %) versus non-treated controls” value in assay [3] (1 and 4 μM, 16 hours and more) is given as “comparable to the non-treated controls”. This compound returned an optimal dose in assay [3] (Vinh Chau cysts) of 0.5 µM. Moreover, the “hatching percentage plus (H+%) versus non-treated controls” value in assay [3] (all treatments (0.5, 1, 4 μM) at 12, 18 and 20 hours) was “significantly increase”. In addition, in assay [2], the “hatching after 24 hours” value is “inhibited hatching almost completely” and the “concentration at which NO donor was most effective on cyst development” value was found to be 0.63 µM. Moreover, in assay [4] (4 μM, 48 h), the “increase in number of nauplii compared to the control” value was roughly 5 fold. Further, in assay [4] (4 μM, 48 h, control around 10%), the “hatching percentage (H %)” value stood at 47%. In addition, in assay [4] (Maloye Yarovoye diapausing cysts), the “optimal dose for inducing hatching” value amounted to 4 µM.

As to `[NH-]c1c[n+](N2CCOCC2)no1` [Sin-1 Chloride, 3-morpholine syndnonimine], the “hatching after 24 hours” value in assay [2] is recorded as “less dramatic, but obvious”. In assay [2], the “concentration at which NO donor was most effective on cyst development” value stood at 4.0 µM. Besides, the “Percentage hatching of resting eggs” value in assay [5] (1 μM, 48 hrs) was 12.34% (3.62); in assay [5] (1 μM, 72 hrs), 33.11% (2.66); in assay [5] (6 μM, 48 hrs), 18.93% (1.25); in assay [5] (6 μM, 72 hrs), 33.71% (0.66); in assay [5] (10 μM, 72 hrs), 37.17% (2.88); in assay [5] (20 μM, 48 hrs) it was 17.99% (3.18). The “Percentage hatching of resting eggs” value in assay [5] (20 μM, 72 hrs) was 32.38% (2.63); in assay [5] (60 μM, 48 hrs) it was 14.98% (3.52); in assay [5] (60 μM, 72 hrs), 27.57% (1.00).

On to nitric oxide [NO gas], for which the eggs emerged in assay [6] (0.02-20 ppmv NO, controls 0%) is 27.1-37.1%. Moreover, the “Percentage of developing eggs” value turned out to be 37.1% in assay [6] (0.02 ppmv NO), 35.7% in assay [6] (0.20 ppmv NO), 31.4% in assay [6] (2.00 ppmv NO) and 27.1% in assay [6] (20.0 ppmv NO). Further, the “percentage of emerging adult beetles” value in assay [7] (0.300 ppmv, after 4 days, in diapause for 27 days, blank control 14.3%) came out at 42.9%; in assay [7] (2.6 ppmv, 3 days after treatment, in diapause for 10 days), 20%; in assay [7] (2.6 ppmv, day 6, in diapause for 10 days), 40%; in assay [7] (6.1 ppmv, 3 days after treatment, in diapause for 10 days), 20%; in assay [7] (6.1 ppmv, day 6, in diapause for 10 days), 20%; in assay [7] (67.4 ppmv, after 4 days, in diapause for 10 days), 20%.
